This is an account of results in patent US11078515B2, “Methods for identifying targets for antimicrobial and antiproliferative compounds and compositions therefrom” (MIMETICS, LLC, priority 2015, dated 2021).

“Also recorded” adds a separate entry of the source.

Test [1] deals with Cryptococcus neoformans. Briefly: Cell division / growth by cell counting in rich versus slow growth (PUD) medium. The class given is cell-based. The settings on record: 0, 50, 100 mM. How it is done: Left panel: C. neoformans cells were grown in rich medium (YEP+2% (w/v) Dextrose) with 0 mM (black), 50 mM (gray), and 100 mM (dotted) concentrations of Validamycin A. Cells were counted each hour for 6 hours and relative growth per mL was assessed. Right panel: C. neoformans cells were grown for 24 hours in PUD media and then dosed with Validamycin A. Cells were grown in slow growth medium (PUD) with 0 mM (black), 50 mM (gray), and 100 mM (dotted) concentrations of Validamycin A for 7 days and then counted at time intervals shown. Media was changed every 24 hours to fresh media containing the indicated concentration of drug.
(§1) Here, we determined whether a trehalose-mimetic compound (Validamycin A) produced by a Streptomyces bacterium, could target the trehalose pathway in S. cerevisiae and in C. neoformans, and inhibit their cell division in sub-optimal growth conditions.

In test [2] the test system is Cryptococcus neoformans. Briefly: Plating assays (colony forming units) after exposure under slow growth conditions. The class given is cell-based.
Text: as §1

In another test the test system is Candida albicans. The settings on record: rich medium; reference [14]; cited from earlier work.

Consider `OCC1=C[C@@H](N[C@H]2C[C@H](CO)[C@@H](O[C@H]3O[C@@H](CO)[C@H](O)[C@@H](O)[C@@H]3O)[C@H](O)[C@H]2O)[C@H](O)[C@@H](O)[C@@H]1O` [Validamycin A], for which the “effect on division rates / growth” value with Cryptococcus neoformans [1] (optimal growth conditions, rich medium (YEPD+2% (w/v) Dextrose), counted each hour for 6 hours) is “no effect; also recorded: not rich medium”; in the test on Cryptococcus neoformans [1] (slow growth conditions, PUD medium (PBS, 5 g/L Urea, 0.1% (w/v) dextrose; mimics cerebral spinal fluid), 7 days), “severely inhibited; also recorded: inhibited in slow growth medium”. Besides, the colony forming units entry with Cryptococcus neoformans [2] (cells exposed under slow growth conditions (PUD medium)) is listed as “substantially reduced”. For the same compound, in the test with Cryptococcus neoformans [2] (slow growth conditions (PUD medium)), the “fungicidal activity (plating assays)” value is reported as “fungicidal”. For the same compound, in the test with Candida albicans, the “efficacy as an antifungal agent against C. albicans” value is listed as “not effective”.
